Results published in patent US9487477B2, “Crystalline phase of (3S,3S′) 4,4′-disulfanediylbis(3-aminobutane 1-sulfonic acid) with L-lysine” (Quantum Genomics, priority 2012, dated 2016).
Values belong to the compound of their own block, whether it stands above or below them.

Key:
[1] = cited from earlier work
Hygroscopicity = format: physicochemical
[2] = TGA-DSC analysis coupled to mass spectrometry (thermal behavior, loss of water); format: physicochemical; conditions: TGA-DSC from 30° C., heating rate 5K/Min
Experimental: A TGA-DSC analysis (coupled to mass spectrometry) was performed on this salt in order to observe its thermal behavior, and to determine its water content.
A TGA-DSC analysis (coupled to mass spectroscopy) was performed on this phase (FIG. 8).
A TGA-DSC analysis coupled to a Mass Spectroscopy (MS) was performed on this phase (FIG. 10).

[3] = Differential scanning calorimetry (thermal stability); format: physicochemical; conditions: DSC from −20° C. up to 180° C., heating rate 5K/min
Experimental: FIG. 3: DSC pattern of ABSD.(L-lysine)2. Said experiment was performed from −20° C. up to 180° C., heating rate=5K/min.
The phase isolated, so called “ABSD L-lysinate”, was analyzed by DSC (FIG. 3). […] Said results further confirm that the crystalline form is anhydrous.

[4] = Solubility in water and other solvents; format: physicochemical
[5] = Karl Fischer titration (water content); format: physicochemical
From the text: A Karl Fischer titration is a classical titration method to determine the trace amounts of water in a sample. A Karl Fischer titration has confirmed the DSC analysis, by determining a water content of 0.06% inside the sample (i.e. very small amount of adsorbed water).

SMILES: N[C@H](CCS(=O)(=O)O)CSSC[C@H](N)CCS(=O)(=O)O [trihydrate phase]
- temperature at which dehydration toward the dihydrate form starts ([1]; as described in WO 2012/045849): below 30 °C

SMILES: NCCCCC(N)C(=O)O (racemic) [DL-lysine, reference compound]
- hygroscopicity (Hygroscopicity): high hygroscopicity up to deliquescence

SMILES: N[C@H](CCS(=O)(=O)O)CSSC[C@H](N)CCS(=O)(=O)O [ABSD zwitterion, (3S,3S′) 4,4′-disulfanediylbis(3-aminobutane 1-sulfonic acid)]
- time for the mixture of hydrated forms to evolve toward the trihydrate phase ([1]; stored at circa 20° C. and RH>50%, WO 2012/045849): less than two days

- temperature of loss of water [2]: circa 35 °C
SMILES: N[C@@H](CCS(=O)(=O)[O-])CSSC[C@@H](N)CCS(=O)(=O)O.[Na+] [sodium hydrogen salt of ABSD]

- hygroscopy compared to the ABSD zwitterionic form (Hygroscopicity): lower
- thermal stability: no thermal phenomenon up to [3]: up to 180 °C
- aqueous solubility compared to the ABSD trihydrate [4]: higher
- aqueous solubility compared to the ABSD zwitterionic form ([4]; room temperature): higher
- water content [5]: 0.06%
SMILES: NCCCC[C@H](N)C(=O)O.NCCCC[C@H](N)C(=O)O.N[C@@H](CCS(=O)(=O)O)CSSC[C@@H](N)CCS(=O)(=O)O [ABSD L-lysinate]
